Laboratory results from patent US11518805B2, “Binding inhibitor between TCTP dimer type IgE-dependent histamine releasing factor and receptor thereof, and use thereof” (EWHA UNIVERSITY—INDUSTRY COLLABORATION FOUNDATION, priority 2014, dated 2022).

Experiments:
[1] = test system: CIA (collagen-induced arthritis) mouse model; test: Preventive effect of dTBP2 in CIA (collagen-induced arthritis) mouse model; type: in vivo, male DBA1/j mice; details: for joint thickness: preventive
CIA mouse model = test: Treatment effect of dTBP2 in CIA mouse model; type: in vivo, DBA1/j mice
HRF [2] = test: Phage clone ELISA for binding to immobilized HRF
Procedure: Particularly, HRF was dissolved in a coating buffer (0.1 M NaHCO 3, pH 8.6) at the concentration of 20 μg/ml, which was loaded in a polystyrene microtiter plate (50 ? /well), followed by coating at 4° C. for overnight and blocking non-specific binding with BSA. The plate was washed with 0.1% Tween/TBS (TBST) 6 times. […] The plate stood at room temperature for 1 hour. TBST was added thereto, and the plate stood for 5 minutes, followed by washing. The washing was performed once after one round of panning, 5 times after 2 and 3 rounds of panning, and 10 times after 4 rounds of panning. 50 ? of glycine/HCl buffer (pH 2.2) was added thereto, which stood for 5 minutes. Then, phages were eluted, and then neutralization was induced with 8 ? of 1 M Tris-HCl (pH 9.1). The eluted phage solution was added to 20 ? of ER2537 culture medium (OD600=0.5˜1), followed by culture in a 37° C. shaking incubator (rpm=200) for 2 hours. 100 ? of SB medium was added thereto, followed by culture for overnight with shaking (250 rpm). The culture solution was centrifuged at 10,000 rpm (4° C.) for 15 minutes. 100 ? of the obtained supernatant was added with 30 ? of 5×PEG/NaCl (20% PEG(w/v), 15% NaCl (w/v)), followed by dissolving for 5 minutes. The mixture was then left in ice for 30 minutes. The mixture was centrifuged at 10,000 rpm (4° C.) for 20 minutes and the supernatant was discarded. The obtained pellet was suspended in 1 ? of 3% BSA/TBS. After performing centrifugation at 14,000 rpm for 5 minutes, the supernatant was obtained and used for panning. Affinity purification and phage replication were repeated 4 times, followed by eluting phages. Each phage clone was obtained from the proper plate of the eluted phage, followed by ELISA. Those phage clones showing a specific affinity to HRF were separated, followed by sequencing to confirm the peptide sequence. Those phage display peptides showing dominant binding to HRF were selected and listed below:
That is, each phage plaque was added to 1 ? of the ER2537 culture medium (OD600=0.5˜1) cultured in SB medium, followed by culture in a 37° C. incubator (rpm=250) for 5 hours. 100 ? of each culture solution was added to 900 ? of SB medium, followed by culture for overnight. […]
Each phage solution separated above was diluted in an equal volume of 6% BSA/PBS, and 50 ? of the diluted solution was added to each well of the plastic well plate coated with HRF or BSA (control), which stood for 2 hours. […] After adding peroxidase substrate solution thereto (100 ? /well), OD405 was measured with an ELISA reader.
HRF was diluted serially by ⅕ fold each from the concentration of 20 μg/ ? […] The phage 2 solution diluted serially by ⅕ fold each (½, 1/10, 1/50, 1/250, and 1/1250 of the stock solution) was added thereto, followed by ELISA and OD405 was measured.

[3] = test system: atopic dermatitis mouse model; test: Effect of dTBP2 in atopic dermatitis mouse model (Biostir AD); type: in vivo, female NC/Nga mice
Procedure: Particularly, 5 week old specific pathogen free female NC/Nga mice were purchased from Orientbio Inc. (Seoul, Korea), which were adapted for 1 week. After depilating with a hair removal agent, Biostir® AD ointment (Biostir, Japan) was used to induce atopic dermatitis on the dorsal skin. That is, hair was removed from the back of the mouse, on which 150 μl of 4% SDS dissolved in PBS was applied. After 2-3 hours of natural dry, 100 mg of Biostir® AD cream was evenly applied on the back skin and the ear skin of the mouse. The cream was applied twice a week, 6 times total for 3 weeks. It was confirmed that the skin layer of the mouse became thick and keratin was formed on the back skin.
To investigate the effect of dTBP2 on atopic dermatitis in the atopic dermatitis-induced mouse, the positive control was administered with PBS, the comparative experimental group was administered with protopic ointment (Astellas Pharma Manufacturing Inc., USA), and the experimental group was treated with dTPB2. On day 0, PBS (subcutaneous injection, 25 mg/kg), protopic ointment (skin application, 100 mg/mouse) and dTBP2 (subcutaneous injection, 25 mg/kg) were respectively applied. On day 1, 100 mg of Biostir® AD cream was applied thereto. On day 2 and day 3, PBS, protopic ointment, and dTBP2 were treated thereto by the same manner as performed on day 0. On day 4, 100 mg of Biostir® AD cream was applied thereto. On day 5, PBS, protopic ointment, and dTBP2 were treated thereto by the same manner as performed on day 0.
Atopic symptoms were observed and presented as points according to the atopic index such as erythema, drying, excoriation, edema, and erosion, based on which a graph was made (FIG. 32b, 0: no symptoms, 1: weak symptoms, 2: median symptoms, 3: severe symptoms). It was confirmed on the graph that atopy was minor in the group treated with protopic ointment and dTBP2, compared with the control.
Once atopic allergy is induced, the stratum corneum and skin layer become thick and the infiltration of inflammatory cells is increased. For the histological evaluation, hematoxylin/eosin staining and toluidine blue staining were performed. The thickness of the skin and the infiltration of immune related inflammatory cells were observed under microscope. As a result, the atopic symptoms including the thick stratum corneum were improved in the groups treated with protopic ointment and dTBP2, compared with the control group treated with PBS alone (FIGS. 34a and 34b).
Lymph node assay examining the effect of an antigen or a drug by observing the changes of lymph node weight was performed to investigate inflammatory reaction induced by skin sensitizing materials.

HRF [4] = test: HRF binding affinity of heptamer peptides by ELISA (alanine scan of p2); details: p2 and its substituted heptamers m1-m7
Source text: In order to confirm the residues involved in the HRF binding affinity of the heptamer peptide of the present invention, the amino acid sequence of p2 was substituted with alanine (A), and only m5 was substituted with lysine (K). As a result, the following sequences were established: […]

[5] = dTBP2 25 mg/kg s.c., protopic ointment 100 mg/mouse, vs PBS

Question: With “WYVYPSM (IgE-dependent histamine-releasing factor binding peptide2) [dTBP2, ID; NO: 24]” as the substance, how does the joint thickness ([1]; 5 mg of dTBP2) read?
Answer: Its joint thickness is “continuously increased until day 41 and rapidly increased from day 41 to day 46”.

Question: And the “development of rheumatoid arthritis” value ([1]; 25 mg of dTBP2, three times a week, vs vehicle alone or 5 mg)?
Answer: Its value is “inhibited more significantly”.

Question: What about the joint thickness ([1]; 25 mg of dTBP2) of the same substance?
Answer: The joint thickness was “almost as same as that of the normal until day 46”.

Question: And the “inhibition of incidence rate” value ([1]; day 31, 25 mg of dTBP2, vs vehicle alone or 5 mg)?
Answer: Its value is “at least 50%”.

Question: And the “inhibition of incidence rate” value ([1]; day 46, 25 mg of dTBP2, vs vehicle alone or 5 mg)?
Answer: Its value is “at least 70%”.

Question: And the joint thickness (CIA mouse model; 5 mg of dTBP2 from day 41)?
Answer: Its joint thickness is “continuously increased”.

Question: What about the joint thickness (CIA mouse model; 25 mg of dTBP2 from day 41) of the same substance?
Answer: Its joint thickness is “reduced”.

Question: And the arthritis clinical score (CIA mouse model; 25 mg of dTBP2 from day 41, vs vehicle alone or 5 mg)?
Answer: The arthritis clinical score was “getting lower”.

Question: What about the “binding force to serially diluted HRF (ELISA, OD405)” value (HRF [2]; HRF diluted until 0.4, 0.08, 0.016, and 0.032 μg/ml, phage solution serially diluted) of the same substance?
Answer: The value was “maintained its binding force to HRF”.

Question: What about the “binding of phage clone to HRF (ELISA, OD405)” value (HRF [2]; wells coated with HRF or BSA (control)) of the same substance?
Answer: Its value is “specifically bind to HRF”.

Question: What about the “IL-4 mRNA level” value [3, 5] of the same substance?
Answer: Its value is “significantly decreased”.

Question: What about the “IL-13 mRNA level” value [3, 5] of the same substance?
Answer: Its value is “significantly decreased”.

Question: And the “atopic symptoms including thick stratum corneum (H&E, skin thickness)” value [3, 5]?
Answer: Its value is “improved”.

Question: What about the histamine level [3, 5] of the same substance?
Answer: The histamine level was “lower”.

Question: What about the “level of Th17A” value [3, 5] of the same substance?
Answer: The value was “lowered”.

Question: And the “lymph node weight and size (lymph node assay)” value [3, 5]?
Answer: The value was “smaller in both weight and size than that of the PBS treated group”.

Question: And the “infiltration of mast cells (toluidine blue)” value ([3]; dTBP2 25 mg/kg s.c., protopic ointment 100 mg/mouse, vs positive control)?
Answer: The value was “significantly reduced”.

Question: And the “atopic symptoms as points (atopic index: erythema, drying, excoriation, edema, erosion)” value ([3]; dTBP2 subcutaneous 25 mg/kg, protopic ointment 100 mg/mouse, vs control)?
Answer: The value was “minor”.

Question: What about the “degree of atopy, visually confirmed” value ([3]; dTBP2 subcutaneous 25 mg/kg, protopic ointment skin application 100 mg/mouse, vs control) of the same substance?
Answer: The value was “lesser degree of atopy than the control group”.

Question: What about the “HRF binding affinity (rank order)” value (HRF [4]) of the same substance?
Answer: The value was “p2, m6>m7>m3>m2>fm5>M1>m4”.
